Data published in patent US12503471B2, “Triazatricycle compounds for the treatment of autoimmune disease” (Hoffmann-La Roche Inc., priority 2019, dated 2025).

Target: T1, hERG channel (Homo sapiens, UniProt Q12809)
T1 construct: expressed in transfected cells; host or cells: CHO (Chinese hamster ovary)
Experiment: hERG channel inhibition assay
Type: cell-based
Conditions: whole-cell patch-clamp; for IC50: CHO cells expressing hERG; for IC20: human, CHO cells stably expressing hERG
Method: hERG Channel Inhibition Assay
The hERG K^+ channels were cloned in humans and stably expressed in a CHO (Chinese hamster ovary) cell line. CHOhERG cells were used for patch-clamp (voltage-clamp, whole-cell) experiments. Cells were stimulated by a voltage pattern to activate hERG channels and conduct IKhERG Currents (rapid delayed outward rectifier potassium current of the hERG channel). After the cells were stabilized for a few minutes, the amplitude and kinetics of IKhERG were recorded at a stimulation frequency of 0.1 Hz (6 bpm). Thereafter, the test compound was added to the preparation at increasing concentrations. For each concentration, an attempt was made to reach a steady-state effect, usually, this was achieved within 3-10 min at which time the next highest concentration was applied. The amplitude and kinetics of IKhERG are recorded in each concentration of the drug which were compared to the control values (taken as 100%). (references: Redfern W S, Carlsson L, Davis A S, Lynch W G, MacKenzie I, Palethorpe S, Siegl P K, Strang I, Sullivan A T, Wallis R, Camm A J, Hammond T G. 2003; Relationships between preclinical cardiac electrophysiology, clinical Q T interval prolongation and torsade de pointes for a broad range of drugs: evidence for a provisional safety margin in drug development. Cardiovasc. Res. 58:32-45, Sanguinetti M C, Tristani-Firouzi M. 2006; hERG potassium channels and cardiac arrhythmia. Nature 440:463-469, Webster R, Leishman D, Walker D. 2002; Towards a drug concentration effect relationship for QT prolongation and torsades de pointes. Curr. Opin. Drug Discov. Devel. 5:116-26).

T1 sequence (Q12809 whole entry): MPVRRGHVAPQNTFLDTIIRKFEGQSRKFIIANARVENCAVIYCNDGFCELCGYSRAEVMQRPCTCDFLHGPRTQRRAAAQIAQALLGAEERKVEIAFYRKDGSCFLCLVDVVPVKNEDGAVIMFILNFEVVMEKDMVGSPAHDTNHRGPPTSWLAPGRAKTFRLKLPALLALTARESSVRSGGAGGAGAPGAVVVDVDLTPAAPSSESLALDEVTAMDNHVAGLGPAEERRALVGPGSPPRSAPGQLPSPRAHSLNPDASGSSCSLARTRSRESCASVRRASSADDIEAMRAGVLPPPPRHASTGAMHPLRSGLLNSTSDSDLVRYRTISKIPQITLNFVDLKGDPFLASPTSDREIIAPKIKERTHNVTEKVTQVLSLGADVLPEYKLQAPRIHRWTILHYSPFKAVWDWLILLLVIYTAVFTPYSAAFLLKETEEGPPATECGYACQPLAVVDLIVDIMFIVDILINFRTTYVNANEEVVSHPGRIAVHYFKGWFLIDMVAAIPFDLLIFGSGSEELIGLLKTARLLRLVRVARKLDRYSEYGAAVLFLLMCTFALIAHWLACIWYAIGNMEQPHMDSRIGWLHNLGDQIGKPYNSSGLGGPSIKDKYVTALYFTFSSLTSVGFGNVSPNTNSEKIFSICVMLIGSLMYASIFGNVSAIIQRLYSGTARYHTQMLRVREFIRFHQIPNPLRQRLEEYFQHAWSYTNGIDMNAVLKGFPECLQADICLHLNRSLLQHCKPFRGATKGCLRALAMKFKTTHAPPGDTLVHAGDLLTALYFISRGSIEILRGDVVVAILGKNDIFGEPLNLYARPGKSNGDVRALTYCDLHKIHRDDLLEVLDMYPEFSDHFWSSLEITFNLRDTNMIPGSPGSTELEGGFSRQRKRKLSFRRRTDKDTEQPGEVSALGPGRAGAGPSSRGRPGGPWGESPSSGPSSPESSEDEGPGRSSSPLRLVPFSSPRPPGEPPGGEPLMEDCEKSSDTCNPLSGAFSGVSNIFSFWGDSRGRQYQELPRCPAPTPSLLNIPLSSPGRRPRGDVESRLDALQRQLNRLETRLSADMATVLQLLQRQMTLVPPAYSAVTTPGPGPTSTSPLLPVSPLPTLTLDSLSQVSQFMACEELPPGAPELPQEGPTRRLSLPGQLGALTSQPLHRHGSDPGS

| Compound | IC50 [µM] | IC20 [µM] |
| --- | --- | --- |
| [2H]c1ccc2c(N3C[C@@H](C)N4Cc5nc(N6CC[C@](C)(N)C6)ccc5[C@H]4C3)ccc(C#N)c2n1 [Example 8, 5-[(2S,6R)-11-[(3S)-3-amino-3-methyl-pyrrolidin-1-yl]-6-methyl-4,7,10-triazatricyclo[7.4.0.02,7]trideca-1(9),10,12-trien-4-yl]-2-deuterio-quinoline-8-carbonitrile] | > 20 | 5.5 |
| C[C@@H]1CN(c2ccc(C#N)c3ncccc23)C[C@@H]2c3ccc(N4CCCNCC4)nc3CN12 [Example 20, 5-[(2S,6R)-11-(1,4-diazepan-1-yl)-6-methyl-4,7,10-triazatricyclo[7.4.0.02,7]trideca-1(9),10,12-trien-4-yl]quinoline-8-carbonitrile] | > 20 | > 10 |
| [2H]c1ccc2c(N3C[C@@H](C)N4Cc5nc(N6CC[C@@](C)(N)C6)ccc5[C@H]4C3)ccc(C#N)c2n1 [Example 7, 5-[(2S,6R)-11-[(3R)-3-amino-3-methyl-pyrrolidin-1-yl]-6-methyl-4,7,10-triazatricyclo[7.4.0.02,7]trideca-1(9),10,12-trien-4-yl]-2-deuterio-quinoline-8-carbonitrile] | > 20 | > 10 |
| [2H]c1ccc2c(N3C[C@@H](C)N4Cc5nc(N6CCC7(CNC7)C6)ccc5[C@H]4C3)ccc(C#N)c2n1 [Example 9, 2-Deuterio-5-[(2S,6R)-11-(2,6-diazaspiro[3.4]octan-6-yl)-6-methyl-4,7,10-triazatricyclo[7.4.0.02,7]trideca-1(9),10,12-trien-4-yl]quinoline-8-carbonitrile] | > 20 | > 10 |
| [2H]c1ccc2c(N3C[C@@H](C)N4Cc5nc(N6C[C@H]7C[C@@H]6CN7)ccc5[C@H]4C3)ccc(C#N)c2n1 [Example 17, 2-Deuterio-5-[(2S,6R)-11-[(1R,4R)-2,5-diazabicyclo[2.2.1]heptan-2-yl]-6-methyl-4,7,10-triazatricyclo[7.4.0.02,7]trideca-1(9),10,12-trien-4-yl]quinoline-8-carbonitrile] | > 20 | > 10 |
| C[C@@H]1CN(c2ccc(C#N)c3ncccc23)C[C@@H]2c3ccc(N4CC5CNCC(C4)O5)nc3CN12 [Example 6, 5-[(2S,6R)-6-methyl-11-(9-oxa-3,7-diazabicyclo[3.3.1]nonan-3-yl)-4,7,10-triazatricyclo[7.4.0.02,7]trideca-1(9),10,12-trien-4-yl]quinoline-8-carbonitrile] | > 20 | > 10 |
